The target in this experiment is T1, human TLR9 (Homo sapiens, UniProt Q9NR96).
T1 construct: host or cells: HEK-Blue hTLR9 (HEK293)
T1 sequence (Q9NR96 26-1032): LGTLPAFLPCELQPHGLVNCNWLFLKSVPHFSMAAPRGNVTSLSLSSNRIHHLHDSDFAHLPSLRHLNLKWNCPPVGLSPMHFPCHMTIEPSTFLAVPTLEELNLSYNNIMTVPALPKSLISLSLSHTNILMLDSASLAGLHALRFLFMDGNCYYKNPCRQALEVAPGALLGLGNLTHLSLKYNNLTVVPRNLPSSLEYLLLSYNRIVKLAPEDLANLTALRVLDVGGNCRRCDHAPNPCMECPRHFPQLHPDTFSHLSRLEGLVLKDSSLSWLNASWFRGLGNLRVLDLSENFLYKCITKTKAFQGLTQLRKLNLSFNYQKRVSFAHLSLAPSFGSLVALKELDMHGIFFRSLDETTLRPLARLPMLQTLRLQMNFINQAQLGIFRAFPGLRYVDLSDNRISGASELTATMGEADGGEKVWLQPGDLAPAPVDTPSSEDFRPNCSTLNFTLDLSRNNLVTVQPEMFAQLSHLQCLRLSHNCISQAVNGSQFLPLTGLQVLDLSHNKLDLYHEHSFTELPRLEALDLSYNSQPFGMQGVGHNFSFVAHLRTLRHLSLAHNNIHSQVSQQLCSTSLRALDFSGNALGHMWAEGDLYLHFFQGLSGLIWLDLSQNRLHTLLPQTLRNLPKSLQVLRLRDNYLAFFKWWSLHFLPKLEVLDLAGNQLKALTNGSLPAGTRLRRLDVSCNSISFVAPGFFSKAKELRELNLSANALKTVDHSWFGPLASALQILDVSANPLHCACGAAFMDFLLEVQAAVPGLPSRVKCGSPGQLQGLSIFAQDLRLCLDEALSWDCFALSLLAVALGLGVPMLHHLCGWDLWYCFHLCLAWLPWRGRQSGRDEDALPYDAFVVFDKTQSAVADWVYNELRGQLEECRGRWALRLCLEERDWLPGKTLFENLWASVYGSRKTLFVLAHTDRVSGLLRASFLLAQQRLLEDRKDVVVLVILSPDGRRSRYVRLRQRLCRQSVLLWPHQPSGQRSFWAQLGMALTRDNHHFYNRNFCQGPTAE
The experiment is described as follows: Inhibitory effect on human TLR9 activation pathway (HEK-Blue hTLR9 SEAP reporter). In kind it is cell-based. Conditions: HEK-Blue hTLR9 cells, 1 μM CpG ODN2006, 20 h, SEAP OD620. On the procedure:
• 1. HEK-Blue™ hTLR9 cell (Invivogen) • 2. CpG ODN2006 (Invivogen) • 3. Alkaline phosphatase detection medium (Quanti-Blue Detection. Invivogen) • 4. Blasticidin (Invivogen) • 5. Zeocin (Invivogen) • 6. Normocin (Invivogen) • 7. DMEM/HIGH Glucose (GE Healthcare) • 8. Fetal bovine serum (FBS, Gibco) • 9. Phosphate-buffered saline (Shanghai BasalMedia Technologies Co., Ltd.) • 10. Sterile purified water (made in-house by Shanghai Hengrui) • 11. 15 mL centrifuge tube (Corning) • 12. 96-well formulating plate (Corning) • 13. 96-well fat-bottom cell culture plate (Corning) • 14. Constant-temperature cell incubator (Thermo scientific) • 15. Constant-temperature incubator (Shanghai Yiheng Scientific Instruments Co., Ltd.) • 16. PHERAstar FS microplate reader (BMG Labtech)
HEK-Blue™ hTLR9 cells were purchased from Invivogen. These cells are HEK293 cells transfected with the human Toll-like receptor 9 (TLR9) gene and the secreted alkaline phosphatase reporter gene (SEAP). The alkaline phosphatase reporter gene (SEAP) is under the regulation of the IFN-β minimal promoter comprising 5 NF-kB and AP-1 binding sites. Upon activation of TLR9 with an agonist, SEAP secretion is induced via downstream NF-kB and AP-1. Ater addition of an antagonist compound, the pathway described above is inhibited, and SEAP secretion is reduced. The activity of the compounds for the TLR9 pathway was evaluated by measuring OD620 through the SEAP substrate.
20 mM test compounds dissolved in 100% DMSO were serially diluted with 100% DMSO to 2000, 400, 80, 16, 3.2, 0.64, 0.128, 0.0256 IM, with blank wells containing 100% DMSO. […] The cells were cultured at 37° C. for 1-2 min, dispersed by pipetting, transferred to a 15 mL centrifuge tube, and counted, and the cell density was adjusted to 4.8×10^5/mL with the DMEM/HIGH glucose medium containing 10% inactivated FBS. […] Then the OD620 absorbance readings were taken on a microplate reader. The inhibition rate was calculated using the following formula: […]
`Cc1cc(-c2[nH]c3cc4c(nc3c2C(C)C)CN(CCc2ccc(N3CCNCC3)nc2)CC4)cc(C)n1` [Example 4, 2-(2,6-Dimethylpyridin-4-yl)-3-isopropyl-6-(2-(6-(piperazin-4-yl)pyridin-3-yl)ethyl)-5,6,7,8-tetrahydro-1H-pyrrolo[3,2-b][1,7]naphthyridine]: the IC50 came to 74 nM.

In the case of `Cc1cc(-c2[nH]c3cc4c(nc3c2C(C)C)CN(Cc2ccc(N3CCNCC3)cn2)CC4)cc(C)n1` [Example 5, 2-(2,6-Dimethylpyridin-4-yl)-3-isopropyl-6-((5-(piperazin-1-yl)pyridin-2-yl)methyl)-5,6,7,8-tetrahydro-1H-pyrrolo[3,2-b][1,7]naphthyridine], the IC50 came out at 87 nM.

`Cc1cc(-c2[nH]c3cc4c(nc3c2C(C)C)CN(CC23CCC(N)(CC2)CC3)CC4)cc(C)n1` [Example 7, 4-((2-(2,6-Dimethylpyridin-4-yl)-3-isopropyl-1,5,7,8-tetrahydro-6H-pyrrolo[3,2-b][1,7]naphthyridin-6-yl)methyl)bicyclo[2.2.2]octyl-1-amine] showed a concentration for half-maximal inhibition (IC50) of 90 nM.

Values taken from patent US20240360133A1, “FUSED TRICYCLIC COMPOUND, PREPARATION METHOD THEREFOR AND APPLICATION THEREOF IN MEDICINE” (Jiangsu Hengrui Pharmaceuticals Co., Ltd., priority 2020, published 2024).
